In paper PMC9645390, “Amphiphilic stilbene derivatives attenuate the neurotoxicity of soluble Aβ42 oligomers by controlling their interactions with cell membranes” (Chemical Science, 2022):

Legend:
[1] = tested on: Cu2+–Aβ42 species in Neuro2A cells; experiment: Cu2+-Aβ42-induced toxicity in Neuro2A cells (Alamar Blue); format: cell-based, mouse; conditions: [Aβ42] = [Cu2+] = 40 μM, compound 10 μM (ZY-12-OMe 5 μM), 40 h
Method: As mentioned above, compounds that are not cytotoxic at 10 μM, including ZY-12-MT, ZY-15-MT, ZY-15-OMe, ZY-17-MT, ZY-5-MT, ZY-5-DT, ZY-5-OMe, and ZY-12-OMe, were chosen for this study. Firstly, during the control studies, we observed that monomeric Aβ42 led to negligible neurotoxicity. Nevertheless, in the presence of both Cu^2+ and monomeric Aβ42, there was a significant cell death, which is likely due to the Cu^2+ associated neurotoxic Aβ42 oligomers formation.[46] […] According to the docking results, ZY-12-MT, ZY-15-OMe, ZY-15-MT, and ZY-5-OMe interact with Aβ42 tetramers mainly through residues His6, Asp7, Tyr10 (via hydrogen bonds), and Tyr10 (via π–π interactions). Some reports have also shown that His6, Asp7, and Tyr10 are potentially involved in the Cu–Aβ interactions, which explains why the compounds are able to attenuate the Cu–Aβ toxicity.[48]
Fig. 9 Cell viability results upon incubation of Neuro2A cells with monomeric Aβ42 in the presence or absence of metal ions and amphiphilic compounds. Concentrations: [Aβ42] = 40 μM, [Cu^2+] = 40 μM, [ZY-12-MT] = [ZY-15-OMe] = [ZY-15-MT] = [ZY-17-MT] = [ZY-5-OMe] = [ZY-5-MT] = [ZY-5-DT] = 10 μM, [ZY-12-OMe] = 5 μM. The error bars represent the standard deviation from five independent experiments, and the statistical analysis was evaluated according to one-way ANOVA (*p < 0.05).
Alamar Blue assay was chosen for the cytotoxicity studies.3 Mouse neuroblastoma Neuro2A (N2A) cells were grown with DMEM/10% FBS in a petri dish at 37 °C in a humidified atmosphere with 5% CO2. Then N2A cells were seeded in a 96-well plate (1.0 × 10^4/well). After 24 h incubation, cell media was changed to DMEM/N-2, and N2A cells were incubated for another 1 h. […]
(§1) For the Cu2+-Aβ-induced toxicity studies, cells were treated monomeric Aβ42, Cu2+, monomeric Aβ42 + Cu2+, and monomeric Aβ42 + Cu2+ + compounds, monomeric Aβ42 + Cu2+ + copper chelators (Me2HTACN or Me3TACN), respectively. After 40 h incubation, Alamar Blue solution (10 μL) was added, and the cells were incubated for another 90 min at 37 °C. The fluorescence intensity of each well was measured at 590 nm (excitation wavelength = 560 nm). […]
10. The effect of copper chelators on Cu2+-Aβ42 neurotoxicity
Figure S8. Cell viability results upon incubation of Neuro2A cells with 10 μM copper chelators (Me2HTACN or Me3TACN) in the presence or absence of 40 μM (Aβ42 + Cu2+). The error bars represent the standard deviation from five independent experiments, and the statistical analysis was evaluated according to one-way ANOVA. […]

[2] = Alamar Blue cytotoxicity assay in N2a cells; format: cell-based, mouse; conditions: mouse, N2a (Neuro2A) neuroblastoma cells, up to 10 μM, 40 h, read-out: cell viability
Method: After confirming these amphiphilic compounds can bind to Aβ species both in vitro and ex vivo, we next investigated whether these compounds could attenuate the toxicity of the Cu–Aβ species, as the Cu^2+ ions were reported to promote the formation of neurotoxic soluble Aβ42 oligomers.[45,46] Firstly, the Alamar Blue cell viability assay was used to measure the cytotoxicity of the compounds at different concentrations ranging from 20 μM to 2 μM in mouse neuroblastoma N2a cells (Fig. 8). […] Considering its high binding affinity to both Aβ fibrils and oligomers, we also further tested its ability to alleviate Cu^2+–Aβ42-induced toxicity. […] The underlying mechanism is unclear, but we propose that these compounds might perform similarly to the toxic oligomers that bind to some cell membrane receptors or insert into the membrane lipids to form porous channels.
Alamar Blue assay was chosen for the cytotoxicity studies.3 Mouse neuroblastoma Neuro2A (N2A) cells were grown with DMEM/10% FBS in a petri dish at 37 °C in a humidified atmosphere with 5% CO2. Then N2A cells were seeded in a 96-well plate (1.0 × 10^4/well). After 24 h incubation, cell media was changed to DMEM/N-2, and N2A cells were incubated for another 1 h. Then the cells were treated with different concentrations of compounds for 40 h, Alamar Blue solution (10 μL) was added, and the cells were incubated for another 90 min at 37 °C. The fluorescence intensity of each well was measured at 590 nm (excitation wavelength = 560 nm).
as §1

SH-SY5Y cells = experiment: Cell toxicity studies in SH-SY5Y cells; format: cell-based, human; conditions: 10 µM
Excerpt: Encouraged by the ability of the developed amphiphilic compounds to attenuate the neurotoxicity of Cu–Aβ species, we sought out to study the possible molecular mechanisms for this beneficial effect. The Aβ oligomers were reported to interact with cell membranes in various ways, such as binding to receptors on cell membranes,[49,50] inserting into membranes,[51] or even showing cellular uptake via endocytosis.[52] The abnormal interactions between Aβ oligomers and neuron cells, which could disrupt the neuronal ion homeostasis and neuron cell membrane integrity, might be why Aβ oligomers are highly neurotoxic.[53–55] Moreover, molecules that can disrupt interactions between oligomers and cell membranes are promising candidates for drug development.[56,57] Thus, we proceeded to probe the interactions of the Aβ42 oligomers with SH-SY5Y cellular membranes, in the absence and presence of the compounds, via confocal microscopy. […] Moreover, a lower concentration of Aβ42 (5 μM) or Aβ42–Cu (5 μM) were chosen to avoid significant cell death (Fig. S9b ^†). Before investigating the neuroprotective effect of our compounds, we have also confirmed that Aβ aggregates interact tightly with the cell membranes, as shown via co-staining with a membrane specific dye (Fig. S10 ^†). Subsequently, SH-SY5Y cells were treated with Aβ oligomers or a combination of Aβ oligomers and compounds for 24 h, followed by the immunofluorescence staining with the CF594-labeled anti-Aβ antibody HJ 3.4 (Fig. 10) and nuclei staining, shown in the red and blue channels, respectively. Compared to the untreated group, the Aβ oligomers were found mainly bound to cell membranes. […] To understand this unusual behavior, we posited that the Aβ oligomers would start the fibrilization process when incubated in the cell media. […] Therefore, we proceeded to probe if our compounds could prevent the binding of Aβ fibrils to cell membranes. […] Given these encouraging results, we moved to study if the amphiphilic compounds can further control the interactions between Cu–Aβ species and cell membranes. Firstly, when SH-SY5Y cells were treated with Aβ monomers for 48 h, the aggregated Aβ species interacting with cell membranes were observed (Fig. 11a). […] However, these aggregates are still smaller than the insoluble fibrils (Fig. S11 ^†), indicating they are still soluble oligomeric Aβ species.
11. Cell toxicity studies in SH-SY5Y cells
Figure S9. Cell toxicity studies in SH-SY5Y cells. a) [ZY- 12-MT] = [ZY-15-OMe] = [ZY-15-MT] = [ZY-5-OMe] =
10 µM. b) Average cell numbers in presence of 5 µM Aβ42 monomer, 5 µM (Aβ42 monomer + Cu2+), 5 µM (Aβ42
monomer + Cu2+ + ZY-15-MT) and 5 µM (Aβ42 monomer + Cu2+ + ZY-15-OMe).
(1 picture or pasted object on this page, not shown here)

Row | Compound | effect on Cu2+–Aβ42-induced toxicity (cell viability, in words) [1] | viability at 40 h [2] [%] | toxicity towards SH-SY5Y cells (in words) (SH-SY5Y cells)
1 | COc1cc(/C=C/c2ccc(-c3ccc(N(C)C)cc3)s2)cc(CN2CCN(C)CCN(C)CC2)c1O [ZY-5-OMe] | could significantly increase cell viability | > 80 | not toxic towards SH-SY5Y cells
2 | COc1cc(/C=C/c2ccc(-c3ccc(C=O)cc3)s2)cc(CN2CCN(C)CCN(C)CC2)c1O [ZY-15-OMe] | could significantly increase cell viability | > 80 | not toxic towards SH-SY5Y cells
3 | CN1CCN(C)CCN(Cc2cc(-c3ccc(/C=C/c4ccc(N(C)C)cc4)s3)ccc2O)CC1 [ZY-12-MT] | could significantly increase cell viability | > 80 | not toxic towards SH-SY5Y cells
4 | CN1CCN(C)CCN(Cc2cc(/C=C/c3ccc(-c4ccc(C=O)cc4)s3)ccc2O)CC1 [ZY-15-MT] | could significantly increase cell viability | > 80 | not toxic towards SH-SY5Y cells
